Results reported in ChEMBL document CHEMBL3132769, “Fragment growing to retain or alter the selectivity of anchored kinase hinge-binding fragments” (Medchemcomm, 2014).

Legend:
[1] = target: T1, Serine/threonine-protein kinase DCLK2 (Homo sapiens) (UniProt Q8N568); experiment: Inhibition of human full length DCAMKL2 expressed in baculovirus assessed as substrate phosphorylation using fluorescence-labelled peptides as substrate at 8 uM after 90 mins by microfluidic peptide phosphorylation assay
T1 sequence (whole entry): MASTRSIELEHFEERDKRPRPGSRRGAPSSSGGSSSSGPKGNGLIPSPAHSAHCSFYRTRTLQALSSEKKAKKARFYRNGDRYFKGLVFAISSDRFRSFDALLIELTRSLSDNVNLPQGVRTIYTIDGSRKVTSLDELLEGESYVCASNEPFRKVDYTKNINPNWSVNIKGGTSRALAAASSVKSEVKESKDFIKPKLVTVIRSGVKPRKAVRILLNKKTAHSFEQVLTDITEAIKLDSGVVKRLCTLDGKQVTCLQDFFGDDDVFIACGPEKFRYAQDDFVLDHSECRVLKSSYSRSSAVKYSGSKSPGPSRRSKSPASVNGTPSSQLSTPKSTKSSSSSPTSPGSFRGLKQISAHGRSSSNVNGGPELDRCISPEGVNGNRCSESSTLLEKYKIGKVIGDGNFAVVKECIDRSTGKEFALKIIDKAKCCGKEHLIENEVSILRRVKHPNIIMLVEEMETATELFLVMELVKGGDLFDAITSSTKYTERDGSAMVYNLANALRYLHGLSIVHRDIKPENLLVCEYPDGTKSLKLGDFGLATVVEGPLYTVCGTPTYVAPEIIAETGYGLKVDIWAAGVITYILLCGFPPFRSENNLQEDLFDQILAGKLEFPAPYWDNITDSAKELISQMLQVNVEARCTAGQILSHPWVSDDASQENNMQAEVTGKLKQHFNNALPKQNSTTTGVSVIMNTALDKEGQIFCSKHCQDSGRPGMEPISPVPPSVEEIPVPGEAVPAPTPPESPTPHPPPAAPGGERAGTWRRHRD

[2] = test system: Tyrosine-protein kinase ABL1 (Homo sapiens), P00519 [Q252H]; experiment: Inhibition of human truncated ABL Q252H mutant expressed in baculovirus assessed as substrate phosphorylation using fluorescence-labelled peptides as substrate at 8 uM after 90 mins by microfluidic peptide phosphorylation assay
[3] = target: T2, Interleukin-1 receptor-associated kinase 4 (Homo sapiens) (UniProt Q9NWZ3); experiment: Inhibition of human IRAK4 catalytic domain expressed in baculovirus assessed as substrate phosphorylation using fluorescence-labelled peptides as substrate at 0.06 uM after 90 mins by microfluidic peptide phosphorylation assay
T2 sequence (whole entry): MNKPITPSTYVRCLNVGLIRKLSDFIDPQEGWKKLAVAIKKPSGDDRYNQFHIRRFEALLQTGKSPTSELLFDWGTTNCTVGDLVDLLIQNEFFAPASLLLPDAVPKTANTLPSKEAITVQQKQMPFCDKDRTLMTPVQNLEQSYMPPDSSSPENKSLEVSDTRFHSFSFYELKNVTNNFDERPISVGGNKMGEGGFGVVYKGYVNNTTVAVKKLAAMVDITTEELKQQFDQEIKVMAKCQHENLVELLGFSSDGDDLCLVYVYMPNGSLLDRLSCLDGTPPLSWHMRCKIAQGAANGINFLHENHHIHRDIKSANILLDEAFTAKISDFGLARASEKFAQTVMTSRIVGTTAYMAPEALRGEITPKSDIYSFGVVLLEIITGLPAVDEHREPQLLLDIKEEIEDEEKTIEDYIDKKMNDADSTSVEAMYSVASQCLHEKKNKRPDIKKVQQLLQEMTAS

[4] = target: Tyrosine-protein kinase ABL2 (Homo sapiens) (UniProt P42684); experiment: Inhibition of human truncated Arg expressed in baculovirus assessed as substrate phosphorylation using fluorescence-labelled peptides as substrate at 0.2 uM after 90 mins by microfluidic peptide phosphorylation assay
Tyrosine-protein kinase ABL2 (Homo sapiens), sequence (P42684 whole entry, the tested form may be a part): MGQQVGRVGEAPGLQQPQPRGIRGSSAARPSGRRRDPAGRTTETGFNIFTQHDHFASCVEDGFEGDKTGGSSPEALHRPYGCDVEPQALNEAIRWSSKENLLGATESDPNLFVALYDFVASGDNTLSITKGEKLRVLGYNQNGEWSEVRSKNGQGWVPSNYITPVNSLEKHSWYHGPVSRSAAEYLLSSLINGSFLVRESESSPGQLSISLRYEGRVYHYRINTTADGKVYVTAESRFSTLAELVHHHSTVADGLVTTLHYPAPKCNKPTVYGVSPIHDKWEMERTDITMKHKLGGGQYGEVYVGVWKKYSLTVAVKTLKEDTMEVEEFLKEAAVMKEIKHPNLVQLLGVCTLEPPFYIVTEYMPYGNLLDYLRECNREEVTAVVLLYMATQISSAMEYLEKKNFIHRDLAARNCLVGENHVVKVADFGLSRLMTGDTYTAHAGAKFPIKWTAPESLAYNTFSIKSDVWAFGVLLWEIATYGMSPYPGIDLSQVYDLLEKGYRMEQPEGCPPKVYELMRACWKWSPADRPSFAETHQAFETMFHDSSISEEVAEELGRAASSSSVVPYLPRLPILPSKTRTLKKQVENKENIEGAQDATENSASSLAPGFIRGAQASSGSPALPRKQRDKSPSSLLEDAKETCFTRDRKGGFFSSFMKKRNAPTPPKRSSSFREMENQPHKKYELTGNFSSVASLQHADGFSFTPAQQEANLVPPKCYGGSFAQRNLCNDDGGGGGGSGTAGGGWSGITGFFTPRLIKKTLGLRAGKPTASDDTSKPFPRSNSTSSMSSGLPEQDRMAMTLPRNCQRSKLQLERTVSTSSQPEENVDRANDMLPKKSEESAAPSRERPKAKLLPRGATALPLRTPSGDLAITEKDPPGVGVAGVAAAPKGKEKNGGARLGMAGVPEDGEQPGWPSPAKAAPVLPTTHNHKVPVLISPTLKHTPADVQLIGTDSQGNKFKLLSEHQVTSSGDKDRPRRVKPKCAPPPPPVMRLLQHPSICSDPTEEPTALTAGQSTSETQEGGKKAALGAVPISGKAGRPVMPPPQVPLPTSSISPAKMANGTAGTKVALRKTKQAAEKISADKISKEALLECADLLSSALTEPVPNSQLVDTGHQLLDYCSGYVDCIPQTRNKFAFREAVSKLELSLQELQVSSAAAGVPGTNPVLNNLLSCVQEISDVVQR

[5] = target: Tyrosine-protein kinase Lck (Homo sapiens) (UniProt P06239); experiment: Inhibition of human full length LCK expressed in baculovirus assessed as substrate phosphorylation using fluorescence-labelled peptides as substrate at 2 uM after 90 mins by microfluidic peptide phosphorylation assay
Tyrosine-protein kinase Lck (Homo sapiens), sequence (P06239 2-509 limits assumed): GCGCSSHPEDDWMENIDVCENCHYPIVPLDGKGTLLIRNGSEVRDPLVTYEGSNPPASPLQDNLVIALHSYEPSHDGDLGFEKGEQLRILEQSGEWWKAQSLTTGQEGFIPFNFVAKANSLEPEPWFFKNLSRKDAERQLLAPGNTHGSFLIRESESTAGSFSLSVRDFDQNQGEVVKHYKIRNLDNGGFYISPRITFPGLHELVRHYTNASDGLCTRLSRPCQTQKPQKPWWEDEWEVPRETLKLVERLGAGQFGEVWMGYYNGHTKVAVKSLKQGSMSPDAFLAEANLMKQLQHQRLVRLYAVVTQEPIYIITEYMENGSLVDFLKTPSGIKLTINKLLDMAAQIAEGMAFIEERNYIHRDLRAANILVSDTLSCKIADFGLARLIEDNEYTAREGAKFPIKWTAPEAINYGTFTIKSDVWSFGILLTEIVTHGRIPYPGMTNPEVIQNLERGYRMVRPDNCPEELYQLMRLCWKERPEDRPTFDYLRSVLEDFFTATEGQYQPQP

[6] = target: T3, Serine/threonine-protein kinase Sgk1 (Homo sapiens) (UniProt O00141); experiment: Inhibition of human truncated SGK1 expressed in baculovirus assessed as substrate phosphorylation using fluorescence-labelled peptides as substrate at […] after 90 mins by microfluidic peptide phosphorylation assay
T3 sequence (whole entry): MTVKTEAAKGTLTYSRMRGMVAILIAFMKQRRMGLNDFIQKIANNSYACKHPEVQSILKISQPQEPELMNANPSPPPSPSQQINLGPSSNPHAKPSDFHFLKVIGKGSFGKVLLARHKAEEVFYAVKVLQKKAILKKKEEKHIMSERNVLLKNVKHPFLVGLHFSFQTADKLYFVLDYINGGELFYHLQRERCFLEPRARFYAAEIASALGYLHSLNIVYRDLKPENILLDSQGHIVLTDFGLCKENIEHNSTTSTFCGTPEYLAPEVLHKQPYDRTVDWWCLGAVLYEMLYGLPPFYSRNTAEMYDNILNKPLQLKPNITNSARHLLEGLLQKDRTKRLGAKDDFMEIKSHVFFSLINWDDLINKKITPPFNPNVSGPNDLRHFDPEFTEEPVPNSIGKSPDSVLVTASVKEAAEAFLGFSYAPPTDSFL

[7] = target: Serine/threonine-protein kinase PAK 2 (Homo sapiens) (UniProt Q13177); experiment: Inhibition of human truncated PAK2 expressed in Escherichia coli cell assessed as substrate phosphorylation using fluorescence-labelled peptides as substrate at 9 uM after 90 mins by microfluidic peptide phosphorylation assay
Serine/threonine-protein kinase PAK 2 (Homo sapiens), sequence (Q13177 whole entry, the tested form may be a part): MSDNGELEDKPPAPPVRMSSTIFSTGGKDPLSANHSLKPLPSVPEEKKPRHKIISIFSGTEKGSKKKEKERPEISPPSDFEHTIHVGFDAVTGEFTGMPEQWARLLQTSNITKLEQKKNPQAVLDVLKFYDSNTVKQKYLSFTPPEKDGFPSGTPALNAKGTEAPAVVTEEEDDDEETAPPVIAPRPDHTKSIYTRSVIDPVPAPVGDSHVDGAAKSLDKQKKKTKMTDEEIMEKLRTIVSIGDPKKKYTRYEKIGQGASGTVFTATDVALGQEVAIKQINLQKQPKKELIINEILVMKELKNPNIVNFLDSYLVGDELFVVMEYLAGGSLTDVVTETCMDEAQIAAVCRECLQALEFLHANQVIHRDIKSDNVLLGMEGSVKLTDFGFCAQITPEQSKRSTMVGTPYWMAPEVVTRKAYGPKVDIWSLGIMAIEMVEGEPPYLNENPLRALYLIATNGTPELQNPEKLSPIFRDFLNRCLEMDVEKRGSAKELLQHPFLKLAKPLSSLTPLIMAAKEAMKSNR

[8] = target: Tyrosine-protein kinase Fyn (Homo sapiens) (UniProt P06241); experiment: Inhibition of human full length FYN expressed in baculovirus assessed as substrate phosphorylation using fluorescence-labelled peptides as substrate at 9 uM after 90 mins by microfluidic peptide phosphorylation assay
Tyrosine-protein kinase Fyn (Homo sapiens), sequence (P06241 2-537 limits assumed): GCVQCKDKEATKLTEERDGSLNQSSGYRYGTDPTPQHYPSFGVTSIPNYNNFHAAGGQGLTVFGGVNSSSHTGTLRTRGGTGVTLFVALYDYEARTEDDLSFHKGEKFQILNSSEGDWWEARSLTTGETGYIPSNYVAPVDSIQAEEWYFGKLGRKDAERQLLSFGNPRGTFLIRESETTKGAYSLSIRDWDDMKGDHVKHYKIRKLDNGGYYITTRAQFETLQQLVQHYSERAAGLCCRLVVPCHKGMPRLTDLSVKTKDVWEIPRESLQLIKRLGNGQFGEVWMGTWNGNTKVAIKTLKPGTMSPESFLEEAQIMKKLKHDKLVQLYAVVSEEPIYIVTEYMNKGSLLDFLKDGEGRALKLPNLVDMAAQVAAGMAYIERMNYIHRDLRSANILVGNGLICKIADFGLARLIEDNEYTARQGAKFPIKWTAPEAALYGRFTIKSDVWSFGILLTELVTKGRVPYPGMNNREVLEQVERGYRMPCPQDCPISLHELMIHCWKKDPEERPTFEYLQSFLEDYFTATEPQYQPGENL

[9] = target: Mitogen-activated protein kinase 1 (Homo sapiens) (UniProt P28482); details: 0.1 uM
Mitogen-activated protein kinase 1 (Homo sapiens), sequence (P28482 whole entry): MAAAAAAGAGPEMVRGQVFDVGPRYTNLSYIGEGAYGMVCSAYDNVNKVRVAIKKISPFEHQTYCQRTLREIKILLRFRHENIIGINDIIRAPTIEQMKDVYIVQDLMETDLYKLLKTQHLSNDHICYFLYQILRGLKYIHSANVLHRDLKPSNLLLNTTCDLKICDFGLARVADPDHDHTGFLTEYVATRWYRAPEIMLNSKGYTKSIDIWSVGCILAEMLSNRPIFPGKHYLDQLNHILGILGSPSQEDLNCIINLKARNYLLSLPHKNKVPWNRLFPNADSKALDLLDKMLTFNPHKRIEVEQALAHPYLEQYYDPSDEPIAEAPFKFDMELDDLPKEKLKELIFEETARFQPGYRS
Description: Inhibition of human full length ERK2 expressed in Escherichia coli cell assessed as substrate phosphorylation using fluorescence-labelled peptides as substrate at 0.1 uM after 90 mins by microfluidic peptide phosphorylation assay

[10] = target: MAP kinase-activated protein kinase 2 (Homo sapiens) (UniProt P49137); experiment: Inhibition of human full length MAPKAPK2 expressed in baculovirus assessed as substrate phosphorylation using fluorescence-labelled peptides as substrate at 95 uM after 90 mins by microfluidic peptide phosphorylation assay
MAP kinase-activated protein kinase 2 (Homo sapiens), sequence (P49137 whole entry, looked up): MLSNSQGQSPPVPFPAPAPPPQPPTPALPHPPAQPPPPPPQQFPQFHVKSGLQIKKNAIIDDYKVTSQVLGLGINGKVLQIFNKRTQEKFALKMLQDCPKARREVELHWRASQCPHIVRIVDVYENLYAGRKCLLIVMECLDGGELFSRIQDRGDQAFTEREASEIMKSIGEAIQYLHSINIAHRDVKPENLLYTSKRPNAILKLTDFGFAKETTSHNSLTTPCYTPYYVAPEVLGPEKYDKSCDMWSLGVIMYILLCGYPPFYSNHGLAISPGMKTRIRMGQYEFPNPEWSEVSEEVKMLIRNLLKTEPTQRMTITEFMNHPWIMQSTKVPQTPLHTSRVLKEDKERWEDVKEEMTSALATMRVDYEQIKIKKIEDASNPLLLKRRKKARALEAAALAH

[11] = target: Protein kinase C beta type (Homo sapiens) (UniProt P05771); experiment: Inhibition of human full length PKC beta2 expressed in baculovirus assessed as substrate phosphorylation using fluorescence-labelled peptides as substrate at 95 uM after 90 mins by microfluidic peptide phosphorylation assay
[12] = target: RAF proto-oncogene serine/threonine-protein kinase (Homo sapiens) (UniProt P04049); experiment: Inhibition of human truncated c-Raf expressed in baculovirus assessed as substrate phosphorylation using fluorescence-labelled peptides as substrate at 1000 uM after 90 mins by microfluidic peptide phosphorylation assay
RAF proto-oncogene serine/threonine-protein kinase (Homo sapiens), sequence (P04049 whole entry, the tested form may be a part): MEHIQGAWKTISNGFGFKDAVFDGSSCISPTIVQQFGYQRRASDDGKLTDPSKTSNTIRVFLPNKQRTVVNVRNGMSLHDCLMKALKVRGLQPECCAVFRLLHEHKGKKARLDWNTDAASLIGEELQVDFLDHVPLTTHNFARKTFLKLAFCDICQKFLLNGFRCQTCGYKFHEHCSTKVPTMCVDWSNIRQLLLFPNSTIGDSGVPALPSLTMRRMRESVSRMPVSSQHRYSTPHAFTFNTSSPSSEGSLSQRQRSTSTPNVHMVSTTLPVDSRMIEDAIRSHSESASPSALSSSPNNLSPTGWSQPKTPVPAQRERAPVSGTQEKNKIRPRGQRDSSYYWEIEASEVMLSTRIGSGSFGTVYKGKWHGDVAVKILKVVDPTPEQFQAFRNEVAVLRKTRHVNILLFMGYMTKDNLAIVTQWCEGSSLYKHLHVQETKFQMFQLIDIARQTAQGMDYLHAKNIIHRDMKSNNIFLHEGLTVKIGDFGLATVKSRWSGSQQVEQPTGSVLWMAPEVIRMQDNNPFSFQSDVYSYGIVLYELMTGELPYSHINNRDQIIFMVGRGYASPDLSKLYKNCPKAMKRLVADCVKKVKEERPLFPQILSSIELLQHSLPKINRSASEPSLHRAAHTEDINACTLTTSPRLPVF

[13] = target: Protein kinase C alpha type (Homo sapiens) (UniProt P17252); experiment: Inhibition of human truncated PKC alpha expressed in baculovirus assessed as substrate phosphorylation using fluorescence-labelled peptides as substrate at 420 uM after 90 mins by microfluidic peptide phosphorylation assay

NCC1CCN(c2ncnc3[nH]ccc23)CC1
inhibition [1]: 21% | inhibition [2]: 87.5%

NC1(Cc2ccc(Cl)cc2)CCN(c2ncnc3[nH]ccc23)CC1
inhibition [3]: 0%

Clc1ccc(C2(c3ccc(-c4ncnc5[nH]cnc45)cc3)CCNCC2)cc1
inhibition [4]: 4.5%

NC1CCN(c2ncnc3[nH]ccc23)CC1
inhibition [5]: 4.5%

COC(=O)c1cnc(Nc2cnc(C#N)cn2)cc1NCC1CCNCC1
inhibition [6]: 4.5%

NCC1CN(c2ncnc3[nH]c4cnccc4c23)CCO1 (stereo not drawn)
inhibition [7]: 3% | inhibition [8]: 29.5%

C[C@H](CN(C)C)Oc1nc(Nc2cc3cccc(Cl)c3cn2)cnc1C#N
inhibition [9]: 0%

NCCc1ccc(-c2ncnc3[nH]cnc23)cc1
inhibition [10]: 56.5% | inhibition [11]: 0%

c1cnc2[nH]ccc2c1
inhibition [12]: 20%

c1nc(N2CCOCC2)c2nc[nH]c2n1
inhibition [13]: 64.5%
